Data on 28 compounds can be found in PMC5717224, “New Hybrid Hydrazinyl Thiazole Substituted Chromones: As Potential α-Amylase Inhibitors and Radical (DPPH & ABTS) Scavengers” (Scientific Reports, 2017).

In general, IC50 refers to the concentration needed to halve the response being measured. As usually defined, the melting point is the temperature, or range, at which the solid turns liquid.

The nature of series [1]: DPPH free radical scavenging assay. Particulars: absorbance 517 nm, 20 min incubation; read-out: DPPH radical scavenging activity IC50 ± SEM. As to the method: The ability of the sample to scavenge, 2-diphenyl-1-picrylhydrazyl (DPPH) free radicals was evaluated by standard method. The sample solutions were prepared in absolute alcohol, ranging from 0.01 mg/mL to 1 mg/mL. A total of 500 μL of sample was added with 500 µL of 2 µmol DPPH solution. After 20 min of incubation, the samples were placed in the dark at room temperature, the absorbance was taken at 517 nm. 500 µL of prepared DDPH solution and 500 µL of absolute alcohol were used as control. The similar procedure was repeated for ascorbic acid as standard[41],[42].
(§1) The percentage inhibition of radical scavenging activity was calculated as illustrated, %Inhibition=(AbsorbanceControl−AbsorbanceSample)/AbsorbanceControl×100

Series [2] can be described thus: ABTS free radical cation scavenging assay. Particulars: absorbance 734 nm, 30 min incubation; read-out: ABTS radical scavenging activity IC50 ± SEM. As to the method:
The (ABTS+) 2,2ʹ-azino-bis(3-ethylbenzothiazoline-6-sulphonic acid) free radical cation scavenging ability of the compounds was determined by standard method. 7 mM ABTS was dissolved in distilled water and 2.45 mM potassium persulfate was added. The solution was kept in the dark for 12–16 h at room temperature. The sample solutions were prepared in absolute alcohol ranging from 0.01 mg/mL to 1 mg/mL. The samples were added with ABTS solution and incubated for 30 min. The absorbance was taken at 734 nm and the procedure was repeated for ascorbic acid as standard.
as §1

In the case of `O=c1c(/C=N\Nc2nc(-c3ccc(-c4ccccc4)cc3)cs2)coc2ccccc12` [Compound 15, (Z)-3-((2-(4-(Biphenyl-4-yl)thiazol-2-yl)hydrazono)methyl)-4H-chromen-4-one], the melting point lay within 234 to 236 °C. The IC50 in series [1] stood at 1410 ± 50 nM. For the same compound, the half-maximal inhibitory concentration (IC50) in series [2] was 1640 ± 40 nM.

`O=c1c(/C=N\Nc2nc(-c3ccc(Cl)c(Cl)c3)cs2)coc2ccccc12` [Compound 9, (Z)-3-((2-(4-(3,4-Dichlorophenyl)thiazol-2-yl)hydrazono)methyl)-4H-chromen-4-one] had a melting point of 245 to 247 °C. In series [1], the half-inhibitory concentration (IC50) came to 314 ± 120 nM. In series [2], the half-maximal inhibitory concentration (IC50) turned out to be 784 ± 120 nM.

Take `O=C1O[C@H]([C@@H](O)CO)C(O)=C1O` [Ascorbic acid, reference compound]: the IC50 in series [1] came out at 330 ± 180 nM; in series [2], 530 ± 300 nM.

For the compound `O=Cc1coc2ccccc2c1=O` [Compound 1, 4-Oxo-4H-chromene-3-carbaldehyde], the values for the IC50 in series [1] and in series [2] were 2230 ± 790 nM and 3740 ± 600 nM, respectively.

`Cc1ccc2occ(/C=N\Nc3nc(-c4ccc(Cl)c(Cl)c4)cs3)c(=O)c2c1` [Compound 22, (Z)-3-((2-(4-(3,4-Dichlorophenyl)thiazol-2-yl)hydrazono)methyl)-6-methyl-4H-chromen-4-one] registered a melting point of 246 to 248 °C. Also, the half-maximal inhibitory concentration (IC50) in series [1] came to 688 ± 170 nM. In addition, in series [2], the IC50 was 719 ± 100 nM.

For the compound `O=c1c(/C=N\Nc2nc(-c3cccc(O)c3)cs2)coc2ccccc12` [Compound 6, (Z)-3-((2-(4-(3-Hydroxyphenyl)thiazol-2-yl)hydrazono)methyl)-4H-chromen-4-one], the results for the IC50 in series [1] and in series [2] were 1900 ± 30 nM and 1892 ± 10 nM, respectively.

For `Cc1ccc2occ(C=O)c(=O)c2c1` [Compound 2, 6-Methyl-4-oxo-4H-chromene-3-carbaldehyde], the melting point is 173 to 175 °C. Besides, the concentration for half-maximal inhibition (IC50) in series [1] worked out at 2230 ± 600 nM. Moreover, in series [2], the IC50 was determined as 2230 ± 60 nM.

The compound `O=c1c(/C=N\Nc2nc(-c3ccc(Cl)cc3Cl)cs2)coc2ccccc12` [Compound 10, (Z)-3-((2-(4-(2,4-Dichlorophenyl)thiazol-2-yl)hydrazono)methyl)-4H-chromen-4-one] yielded a melting point of 243 to 245 °C. Moreover, the half-inhibitory concentration (IC50) in series [1] came out at 90 ± 170 nM. For the same compound, in series [2], the half-maximal inhibitory concentration (IC50) turned out to be 677 ± 260 nM.

`Cc1ccc2occ(/C=N\Nc3nc(-c4cccc(Br)c4)cs3)c(=O)c2c1` [Compound 19, (Z)-3-((2-(4-(3-Bromophenyl)thiazol-2-yl)hydrazono)methyl)-6-methyl-4H-chromen-4-one]: the IC50 came out at 781 ± 180 nM in series [1] and 584 ± 70 nM in series [2].

In turn, `Cc1ccc2occ(/C=N\Nc3nc(-c4ccc(Cl)cc4)cs3)c(=O)c2c1` [Compound 23, (Z)-3-((2-(4-(4-Chlorophenyl)thiazol-2-yl)hydrazono)methyl)-6-methyl-4H-chromen-4-one] displayed a melting point of 245 to 247 °C. Moreover, the IC50 in series [1] was 840 ± 100 nM. Moreover, the IC50 in series [2] was 820 ± 180 nM.

`Cc1ccc2occ(/C=N\Nc3nc(-c4cccc(O)c4)cs3)c(=O)c2c1` [Compound 17, (Z)-3-((2-(4-(3-Hydroxyphenyl)thiazol-2-yl)hydrazono)methyl)-6-methyl-4H-chromen-4-one] came in with a melting point of 237 to 239 °C. For the same compound, the IC50 in series [1] stood at 1340 ± 90 nM. Moreover, the IC50 in series [2] turned out to be 1380 ± 50 nM.

In turn, `O=c1c(/C=N\Nc2nc(-c3ccc(Br)cc3)cs2)coc2ccccc12` [Compound 7, (Z)-3-((2-(4-(4-Bromophenyl)thiazol-2-yl)hydrazono)methyl)-4H-chromen-4-one] registered a melting point of 230 to 232 °C. For the same compound, the IC50 in series [1] was determined as 892 ± 90 nM. In series [2], the IC50 turned out to be 830 ± 250 nM.

Compound `O=c1c(/C=N\Nc2nc(-c3cccc(Br)c3)cs2)coc2ccccc12` [Compound 8, (Z)-3-((2-(4-(3-Bromophenyl)thiazol-2-yl)hydrazono)methyl)-4H-chromen-4-one] had a melting point of 225 to 227 °C. For the same compound, the concentration for half-maximal inhibition (IC50) in series [1] was 912 ± 230 nM. Also, the half-maximal inhibitory concentration (IC50) in series [2] is 914 ± 190 nM.

As to `Cc1ccc2occ(/C=N\Nc3nc(-c4ccc(Br)cc4)cs3)c(=O)c2c1` [Compound 20, (Z)-3-((2-(4-(4-Bromophenyl)thiazol-2-yl)hydrazono)methyl)-6-methyl-4H-chromen-4-one], the melting point was 235 to 237 °C. The half-inhibitory concentration (IC50) in series [1] came out at 611 ± 290 nM. The IC50 in series [2] is 660 ± 160 nM.

With `Cc1ccc2occ(/C=N\Nc3nc(-c4ccc(-c5ccccc5)cc4)cs3)c(=O)c2c1` [Compound 27, (Z)-3-((2-(4-(Biphenyl-4-yl)thiazol-2-yl)hydrazono)methyl)-6-methyl-4H-chromen-4-one], the melting point lay within 235 to 237 °C. For the same compound, the IC50 in series [1] was 1340 ± 70 nM. Moreover, the IC50 in series [2] turned out to be 1290 ± 70 nM.

On to `Cc1ccc2occ(/C=N\Nc3nc(-c4cccc([N+](=O)[O-])c4)cs3)c(=O)c2c1` [Compound 25, (Z)-6-Methyl-3-((2-(4-(3-nitrophenyl)thiazol-2-yl)hydrazono)methyl)-4H-chromen-4-one], for which the melting point is 240 to 242 °C. In series [1], the 50% inhibitory concentration (IC50) was 1310 ± 60 nM. Also, in series [2], the IC50 was 1300 ± 110 nM.

For the compound `Cc1ccc2occ(/C=N\Nc3nc(-c4ccccc4O)cs3)c(=O)c2c1` [Compound 18, (Z)-3-((2-(4-(2-Hydroxyphenyl)thiazol-2-yl)hydrazono)methyl)-6-methyl-4H-chromen-4-one], the melting point lay within 230 to 232 °C. Moreover, the IC50 in series [1] was found to be 1660 ± 600 nM. Moreover, in series [2], the IC50 was found to be 1730 ± 50 nM.

Regarding `Cc1ccc2occ(/C=N\NC(N)=S)c(=O)c2c1` [Compound 4, (Z)-2-((6-Methyl-4-oxo-4H-chromen-3-yl)methylene)hydrazinecarbothioamide], the melting point lay within 245 to 247 °C. Further, the half-maximal inhibitory concentration (IC50) in series [1] was 1140 ± 120 nM. The 50% inhibitory concentration (IC50) in series [2] came to 1260 ± 100 nM.

In turn, `Cc1ccc2occ(/C=N\Nc3nc(-c4cccc(Cl)c4)cs3)c(=O)c2c1` [Compound 24, (Z)-3-((2-(4-(3-Chlorophenyl)thiazol-2-yl)hydrazono)methyl)-6-methyl-4H-chromen-4-one] gave a melting point of 230 to 232 °C. Moreover, the IC50 in series [1] was found to be 990 ± 120 nM. For the same compound, the IC50 in series [2] worked out at 1020 ± 40 nM.

In turn, `Cc1ccc2occ(/C=N\Nc3nc(-c4ccc(Cl)cc4Cl)cs3)c(=O)c2c1` [Compound 21, (Z)-3-((2-(4-(2,4-Dichlorophenyl)thiazol-2-yl)hydrazono)methyl)-6-methyl-4H-chromen-4-one] displayed a melting point of 245 to 247 °C. Further, the half-maximal inhibitory concentration (IC50) in series [1] stood at 684 ± 130 nM. Further, the IC50 in series [2] is 710 ± 90 nM.

In the case of `N#Cc1ccc(-c2csc(N/N=C\c3coc4ccccc4c3=O)n2)cc1` [Compound 14, (Z)-4-(2-(2-((4-Oxo-4H-chromen-3-yl)methylene)hydrazinyl)thiazol-4-yl)benzonitrile], the melting point lay within 225 to 227 °C. In series [1], the concentration for half-maximal inhibition (IC50) amounted to 1290 ± 100 nM. Besides, in series [2], the IC50 amounted to 1260 ± 70 nM.

In the case of `Cc1ccc2occ(/C=N\Nc3nc(-c4ccc(C#N)cc4)cs3)c(=O)c2c1` [Compound 26, (Z)-4-(2-(2-((6-Methyl-4-oxo-4H-chromen-3-yl)methylene)hydrazinyl)thiazol-4-yl)benzonitrile], the melting point is 238 to 240 °C. For the same compound, in series [1], the IC50 came to 1300 ± 130 nM. Moreover, the IC50 in series [2] amounted to 1280 ± 40 nM.

The compound `NC(=S)N/N=C\c1coc2ccccc2c1=O` [Compound 3, (Z)-2-((4-Oxo-4H-chromen-3-yl)methylene) hydrazinecarbothioamide] yielded a melting point of 240 to 242 °C. For the same compound, the IC50 in series [1] is 1900 ± 60 nM. The IC50 in series [2] was 1920 ± 90 nM.

For `O=c1c(/C=N\Nc2nc(-c3cccc([N+](=O)[O-])c3)cs2)coc2ccccc12` [Compound 13, (Z)-3-((2-(4-(3-Nitrophenyl)thiazol-2-yl)hydrazono)methyl)-4H-chromen-4-one], the melting point lay in the range of 235 to 237 °C. Further, the IC50 in series [1] was found to be 1740 ± 40 nM. Besides, in series [2], the IC50 stood at 1890 ± 50 nM.

In the case of `O=c1c(/C=N\Nc2nc(-c3ccc(Cl)cc3)cs2)coc2ccccc12` [Compound 11, (Z)-3-((2-(4-(4-Chlorophenyl)thiazol-2-yl)hydrazono)methyl)-4H-chromen-4-one], the melting point fell in the range of 239 to 241 °C. In addition, the IC50 in series [1] was found to be 922 ± 220 nM. In series [2], the half-inhibitory concentration (IC50) stood at 918 ± 140 nM.

Consider `O=c1c(/C=N\Nc2nc(-c3ccccc3)cs2)coc2ccccc12` [Compound 5, (Z)-3-((2-(4-Phenylthiazol-2-yl)hydrazono)methyl)-4H-chromen-4-one], for which the melting point lay in the range of 223 to 225 °C. In addition, the 50% inhibitory concentration (IC50) in series [1] was 1110 ± 150 nM. For the same compound, the IC50 in series [2] is 1080 ± 150 nM.

As to `O=c1c(/C=N\Nc2nc(-c3cccc(Cl)c3)cs2)coc2ccccc12` [Compound 12, (Z)-3-((2-(4-(3-Chlorophenyl)thiazol-2-yl)hydrazono)methyl)-4H-chromen-4-one], the melting point lay within 228 to 230 °C. In series [1], the half-inhibitory concentration (IC50) is 1050 ± 30 nM. Also, in series [2], the IC50 came out at 1080 ± 80 nM.

Consider `Cc1ccc2occ(/C=N\Nc3nc(-c4ccccc4)cs3)c(=O)c2c1` [Compound 16, (Z)-6-Methyl-3-((2-(4-phenylthiazol-2-yl)hydrazono)methyl)-4H-chromen-4-one], for which the melting point lay within 235 to 237 °C. Further, the IC50 in series [1] worked out at 1370 ± 200 nM. Moreover, the half-inhibitory concentration (IC50) in series [2] turned out to be 1320 ± 200 nM.
